US20230167118A1, “DEGRADATION OF BRUTON'S TYROSINE KINASE (BTK) BY CONJUGATION OF BTK INIDBITORS WITH E3 LIGASE LIGAND AND METHODS OF USE” (BEIGENE, LTD., priority 2020, published 2023)

Key:
[1] = molecular target: T1, BTK (Homo sapiens, UniProt Q06187); assay: Cell Degradation: BTK degradation in TMD-8 cells, HTRF assay; format: cell-based; settings: 6 h treatment, IC50 (DC50) of BTK degradation
T1 construct: High control=Cell group with added DMSO and without compound, indicating microplate readings without BTK degradation; endogenous in cells; host or cells: TMD-8 cells
T1 sequence (Q06187 whole entry): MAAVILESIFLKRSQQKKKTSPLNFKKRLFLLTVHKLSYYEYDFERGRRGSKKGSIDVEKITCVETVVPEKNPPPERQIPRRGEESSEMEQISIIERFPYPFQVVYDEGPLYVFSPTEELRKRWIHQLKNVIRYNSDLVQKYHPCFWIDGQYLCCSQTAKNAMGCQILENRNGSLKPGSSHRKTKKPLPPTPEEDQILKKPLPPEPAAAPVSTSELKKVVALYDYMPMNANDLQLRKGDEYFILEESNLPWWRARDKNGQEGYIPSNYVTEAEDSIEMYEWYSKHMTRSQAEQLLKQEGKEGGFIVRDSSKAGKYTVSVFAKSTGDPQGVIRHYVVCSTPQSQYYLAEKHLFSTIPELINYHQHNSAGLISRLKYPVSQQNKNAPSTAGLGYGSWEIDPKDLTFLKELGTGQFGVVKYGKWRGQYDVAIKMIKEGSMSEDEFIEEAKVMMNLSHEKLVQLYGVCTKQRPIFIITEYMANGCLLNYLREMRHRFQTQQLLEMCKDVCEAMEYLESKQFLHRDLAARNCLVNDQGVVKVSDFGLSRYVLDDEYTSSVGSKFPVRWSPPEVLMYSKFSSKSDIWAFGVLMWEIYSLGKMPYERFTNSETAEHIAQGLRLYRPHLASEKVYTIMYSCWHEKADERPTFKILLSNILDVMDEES
Procedure, shortened: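 TMD-8 cells treated 6 h with 8-dose 6-fold dilutions in 0.2% DMSO, then lysed and BTK quantified by HTRF (665/620 nm). Degradation % normalised to high/low controls; DC50 from four-parameter fit, Dmax as maximal degradation.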

[2] = test system: HEK-293 cells; assay: HEK-293 Cytotoxicity Assay (CellTiter-Glo); format: cell-based; settings: Homo sapiens, HEK293, 72 h incubation, CellTiter-Glo luminescence
Procedure, shortened: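 HEK-293 cells treated 72 h with 8 concentrations (4-fold dilutions, 0.2% DMSO final). Viability read by CellTiter-Glo luminescence; IC50 from four-parameter logistic fit of % inhibition.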

DC50 [1] [nM]	Compound	IC50 [2] [nM]
0.97	COc1cc(-c2nc3c(-c4ccc([C@@H](C)NC(=O)c5nc(C(C)(C)C)no5)c(C)c4)ncnc3[nH]2)ccc1N1CCN(CC2CCN(c3ccc(N4CCC(=O)NC4=O)c(C)c3)CC2)CC1 [Example 113, (R)-3-(tert-butyl)-N-(1-(4-(8-(4-(4-((1-(4-(2,4-dioxotetrahydropyrimidin-1(2H)-yl)-3-methylphenyl)piperidin-4-yl)methyl)piperazin-1-yl)-3-methoxyphenyl)-9H-purin-6-yl)-2-methylphenyl)ethyl)-1,2,4-oxadiazole-5-carboxamide]	> 10000
1.68	Cc1cc(N2CCN(CC3CCN(c4ccc(N5CCC(=O)NC5=O)c(C)c4)CC3)CC2)ccc1-c1nc2c(-c3ccc([C@@H](C)NC(=O)c4nc(C(C)(C)C)no4)c(C)c3)ncnc2[nH]1 [Example 114, (R)-3-(tert-butyl)-N-(1-(4-(8-(4-(4-((1-(4-(2,4-dioxotetrahydropyrimidin-1(2H)-yl)-3-methylphenyl)piperidin-4-yl)methyl)piperazin-1-yl)-2-methylphenyl)-9H-purin-6-yl)-2-methylphenyl)ethyl)-1,2,4-oxadiazole-5-carboxamide]	> 10000
1.83	Cc1c([C@@H](C)NC(=O)c2noc(C(C)(C)C)n2)ccc(-c2ncnc3[nH]c(-c4ccc(N5CCN(CC6CCN(c7ccc(N8CCC(=O)NC8=O)cc7)CC6)CC5)cc4)cc23)c1F [Example 115, (R)-5-(tert-butyl)-N-(1-(4-(6-(4-(4-((1-(4-(2,4-dioxotetrahydropyrimidin-1(2H)-yl)phenyl)piperidin-4-yl)methyl)piperazin-1-yl)phenyl)-7H-pyrrolo[2,3-d]pyrimidin-4-yl)-3-fluoro-2-methylphenyl)ethyl)-1,2,4-oxadiazole-3-carboxamide]	> 10000
2.28	Cc1cc(-c2ncnc3[nH]c(-c4cccc(N5CCN(CC6CCN(c7ccc(N8CCC(=O)NC8=O)cc7)CC6)CC5)c4)cc23)ccc1[C@@H](C)NC(=O)c1nc(C(C)(C)C)no1 [Example 116, (R)-3-(tert-butyl)-N-(1-(4-(6-(3-(4-((1-(4-(2,4-dioxotetrahydropyrimidin-1(2H)-yl)phenyl)piperidin-4-yl)methyl)piperazin-1-yl)phenyl)-7H-pyrrolo[2,3-d]pyrimidin-4-yl)-2-methylphenyl)ethyl)-1,2,4-oxadiazole-5-carboxamide]	> 10000
3.72	Cc1cc(-c2ncnc3[nH]c(-c4ccc(N5CCN(CC6CCN(c7ccc(N8CCC(=O)NC8=O)cc7)CC6)CC5)nc4)cc23)ccc1[C@@H](C)NC(=O)c1cc(C(C)(C)C)on1 [Example 117, (R)-5-(tert-butyl)-N-(1-(4-(6-(6-(4-((1-(4-(2,4-dioxotetrahydropyrimidin-1(2H)-yl)phenyl)piperidin-4-yl)methyl)piperazin-1-yl)pyridin-3-yl)-7H-pyrrolo[2,3-d]pyrimidin-4-yl)-2-methylphenyl)ethyl)isoxazole-3-carboxamide]	> 10000
0.5	C[C@@H](NC(=O)c1noc(C(C)(C)C)n1)c1ccc(-c2ncnc3[nH]c(-c4ccc(N5CCN(CC6CCN(c7ccc(N8CCC(=O)NC8=O)cc7)CC6)CC5)cc4)cc23)cc1CO [Example 118, (R)-5-(tert-butyl)-N-(1-(4-(6-(4-(4-((1-(4-(2,4-dioxotetrahydropyrimidin-1(2H)-yl)phenyl)piperidin-4-yl)methyl)piperazin-1-yl)phenyl)-7H-pyrrolo[2,3-d]pyrimidin-4-yl)-2-(hydroxymethyl)phenyl)ethyl)-1,2,4-oxadiazole-3-carboxamide]	> 10000
1.2	Cc1cc(-c2ncnc3[nH]c(-c4ccc(N5CCN(CC6CCN(c7cccc(N8CCC(=O)NC8=O)c7)CC6)CC5)cn4)cc23)ccc1[C@@H](C)NC(=O)c1nc(C(C)(C)C)no1 [Example 119, (R)-3-(tert-butyl)-N-(1-(4-(6-(5-(4-((1-(3-(2,4-dioxotetrahydropyrimidin-1(2H)-yl)phenyl)piperidin-4-yl)methyl)piperazin-1-yl)pyridin-2-yl)-7H-pyrrolo[2,3-d]pyrimidin-4-yl)-2-methylphenyl)ethyl)-1,2,4-oxadiazole-5-carboxamide]	> 10000
0.18	Cc1nn(C2CCN(CC3CCN(c4ccc(N5CCC(=O)NC5=O)cc4)CC3)CC2)c(C)c1-c1cc2c(-c3ccc([C@@H](C)NC(=O)c4noc(C(C)(C)C)n4)c(CO)c3)ncnc2[nH]1 [Example 120, (R)-5-(tert-butyl)-N-(1-(4-(6-(1-(1-((1-(4-(2,4-dioxotetrahydropyrimidin-1(2H)-yl)phenyl)piperidin-4-yl)methyl)piperidin-4-yl)-3,5-dimethyl-1H-pyrazol-4-yl)-7H-pyrrolo[2,3-d]pyrimidin-4-yl)-2-(hydroxymethyl)phenyl)ethyl)-1,2,4-oxadiazole-3-carboxamide]	> 10000
0.23	Cc1cc(-c2ncnc3[nH]c(-c4c(C)nn(C5CCN(CC6CCN(c7ccc(N8CCC(=O)NC8=O)cc7)CC6)CC5)c4C)cc23)ccc1[C@@H](C)NC(=O)c1cn(C(C)(C)C)nn1 [Example 121, (R)-1-(tert-butyl)-N-(1-(4-(6-(1-(1-((1-(4-(2,4-dioxotetrahydropyrimidin-1(2H)-yl)phenyl)piperidin-4-yl)methyl)piperidin-4-yl)-3,5-dimethyl-1H-pyrazol-4-yl)-7H-pyrrolo[2,3-d]pyrimidin-4-yl)-2-methylphenyl)ethyl)-1H-1,2,3-triazole-4-carboxamide]	> 10000
0.29	Cc1nn(C2CCN(CC3CCN(c4ccc(N5CCC(=O)NC5=O)cc4)CC3)CC2)c(C)c1-c1cc2c(-c3ccc([C@@H](C)NC(=O)c4cn(C(C)(C)C)nn4)c(CO)c3)ncnc2[nH]1 [Example 122, (R)-1-(tert-butyl)-N-(1-(4-(6-(1-(1-((1-(4-(2,4-dioxotetrahydropyrimidin-1(2H)-yl)phenyl)piperidin-4-yl)methyl)piperidin-4-yl)-3,5-dimethyl-1H-pyrazol-4-yl)-7H-pyrrolo[2,3-d]pyrimidin-4-yl)-2-(hydroxymethyl)phenyl)ethyl)-1H-1,2,3-triazole-4-carboxamide]	4110
0.16	Cc1cc(-c2ncnc3[nH]c(-c4ccc(N5CCN(CC6CCN(c7ccc(N8CCC(=O)NC8=O)c(C)c7)CC6)CC5)cn4)cc23)ccc1[C@@H](C)NC(=O)c1noc(C2(CO)CC2)n1 [Example 123, (R)-N-(1-(4-(6-(5-(4-((1-(4-(2,4-dioxotetrahydropyrimidin-1(2H)-yl)-3-methylphenyl)piperidin-4-yl)methyl)piperazin-1-yl)pyridin-2-yl)-7H-pyrrolo[2,3-d]pyrimidin-4-yl)-2-methylphenyl)ethyl)-5-(1-(hydroxymethyl)cyclopropyl)-1,2,4-oxadiazole-3-carboxamide]	> 10000
1.01	Cc1cc(-c2ncnc3[nH]c(-c4ccc(N5CCN(CC6CCN(c7ccc(N8CCC(=O)NC8=O)cc7)CC6)CC5)cn4)cc23)ccc1[C@@H](C)NC(=O)c1noc(C2(C)CC2)n1 [Example 124, (R)-N-(1-(4-(6-(5-(4-((1-(4-(2,4-dioxotetrahydropyrimidin-1(2H)-yl)phenyl)piperidin-4-yl)methyl)piperazin-1-yl)pyridin-2-yl)-7H-pyrrolo[2,3-d]pyrimidin-4-yl)-2-methylphenyl)ethyl)-5-(1-methylcyclopropyl)-1,2,4-oxadiazole-3-carboxamide]	> 10000
0.74	Cc1cc(-c2ncnc3[nH]c(-c4ccc(N5CCN(CC6CCN(c7ccc(N8CCC(=O)NC8=O)c(C)c7)CC6)CC5)cn4)cc23)ccc1[C@@H](C)NC(=O)c1noc(C2(C)CC2)n1 [Example 125, (R)-N-(1-(4-(6-(5-(4-((1-(4-(2,4-dioxotetrahydropyrimidin-1(2H)-yl)-3-methylphenyl)piperidin-4-yl)methyl)piperazin-1-yl)pyridin-2-yl)-7H-pyrrolo[2,3-d]pyrimidin-4-yl)-2-methylphenyl)ethyl)-5-(1-methylcyclopropyl)-1,2,4-oxadiazole-3-carboxamide]	> 10000
0.41	Cc1cc(-c2ncnc3[nH]c(-c4ccc(N5CCN(CC6CCN(c7ccc(N8CCC(=O)NC8=O)c(C)c7)CC6)CC5)nc4)cc23)ccc1[C@@H](C)NC(=O)c1noc(C2(C)CC2)n1 [Example 126, (R)-N-(1-(4-(6-(6-(4-((1-(4-(2,4-dioxotetrahydropyrimidin-1(2H)-yl)-3-methylphenyl)piperidin-4-yl)methyl)piperazin-1-yl)pyridin-3-yl)-7H-pyrrolo[2,3-d]pyrimidin-4-yl)-2-methylphenyl)ethyl)-5-(1-methylcyclopropyl)-1,2,4-oxadiazole-3-carboxamide]	> 10000
0.42	Cc1c([C@@H](C)NC(=O)c2noc(C(C)(C)C)n2)ccc(-c2ncnc3[nH]c(-c4ccc(N5CCN(CC6CCN(c7ccc(N8CCC(=O)NC8=O)cc7)CC6)CC5)cn4)cc23)c1F [Example 127, (R)-5-(tert-butyl)-N-(1-(4-(6-(5-(4-((1-(4-(2,4-dioxotetrahydropyrimidin-1(2H)-yl)phenyl)piperidin-4-yl)methyl)piperazin-1-yl)pyridin-2-yl)-7H-pyrrolo[2,3-d]pyrimidin-4-yl)-3-fluoro-2-methylphenyl)ethyl)-1,2,4-oxadiazole-3-carboxamide]	> 10000
0.47	Cc1cc(N2CCC(CN3CCN(c4ccc(-c5cc6c(-c7ccc([C@@H](C)NC(=O)c8noc(C(C)(C)C)n8)c(C)c7F)ncnc6[nH]5)nc4)CC3)CC2)ccc1N1CCC(=O)NC1=O [Example 128, (R)-5-(tert-butyl)-N-(1-(4-(6-(5-(4-((1-(4-(2,4-dioxotetrahydropyrimidin-1(2H)-yl)-3-methylphenyl)piperidin-4-yl)methyl)piperazin-1-yl)pyridin-2-yl)-7H-pyrrolo[2,3-d]pyrimidin-4-yl)-3-fluoro-2-methylphenyl)ethyl)-1,2,4-oxadiazole-3-carboxamide]	> 10000
